One experiment concerns MV-4-11 cells. Put plainly: In vitro cell proliferation assay (CellTiter-Glo), MV-4-11. It counts as cell-based. As for the experimental part:
(§1) In Vitro Cell Proliferation Assay
MV-4-11 (biphenotypic B myelomonocytic leukemia) cell line was obtained from ATCC.
Media for MV-4-11 cell line contained RPMI 1640 or EMEM plus 2 mM Glutamine and 10% Fetal bovine serum.
(§2) BaF3-PIM1 and MV-4-11 cells were seeded at 125 cells/well and 1250 cells/well respectively in a 384-well white plates in complete medium and treated with compounds dissolved in 0.1% DMSO, 24 h after seeding.
(§3) The cells were incubated at 37° C. and 5% CO2 and after 72 hours the plates were processed using CellTiter-Glo assay (Promega) following the manufacturer's instruction.
(§4) CellTiter-Glo was a homogenous method based on the quantification of the ATP present, an indicator of metabolitically active cells. ATP was quantified using a system based on luciferase and D-luciferin resulting into light generation. The luminescent signal was proportional to the number of cells present in culture.
(§5) Briefly 25 μl/well reagent solution were added to each wells and after 5 minutes shacking microplates were red by Envision (PerkinElmer) luminometer. The luminescent signal was proportional to the number of cells present in culture.
(§6) Inhibitory activity was evaluated comparing treated versus control data using Assay Explorer (MDL) program. IC50 was calculated using sigmoidal interpolation curve.
For orientation: ATP-based viability assays read luminescence as a measure of living cells.

In the next experiment the target is human PIM1 (Homo sapiens (Human), UniProt P11309). Put plainly: Biochemical assay for inhibitors of PIM1 kinase activity (trans-phosphorylation, Dowex technique). As to conditions: ATP 200 μM, Aktide 25 μM, enzyme 1 nM; read-out: PIM-1 IC50. The procedure:
Biochemical Assay for Inhibitors of PIM1 Kinase Activity
The inhibitory activity of putative kinase inhibitors and the potency of selected compounds were determined using a trans-phosphorylation assay.
Specific peptide or protein substrates were trans-phosphorylated by their specific ser-thr or tyr kinase in the presence of ATP traced with ^33P-γ-ATP, and in the presence of their own optimal buffer and cofactors.
At the end of the phosphorylation reaction, more than 98% unlabeled ATP and radioactive ATP were captured by an excess of the ion exchange dowex resin; the resin then settled down to the bottom of the reaction plate by gravity. Supernatant was subsequently withdrawn and transferred into a counting plate, then evaluated by β-counting.
Reagents/Assay Conditions i. Dowex Resin Preparation
500 g of wet resin (SIGMA, custom prepared resin DOWEX 1×8 200-400 mesh, 2.5 Kg) were weighed out and diluted to 2 L in 150 mM sodium formate, pH 3.00.
The resin was allowed to settle down (some hours) and then the supernatant was discarded.
After three washes as above over a couple of days, the resin was allowed to settle and two volumes (wrt the resin volume) of 150 mM sodium formate buffer were added.
The pH was then measured and should have been around 3.00.
The washed resin was stable for more than one week; the stock resin was kept at 4° C. before use.
The buffer for PIM1 assay was composed of HEPES 50 mM, at pH 7.5, with 10 mM MgCl2, 1 mM DTT, 3 μM NaVO3, and 0.2 mg/mL BSA.
Full-length human PIM1 was expressed and purified as described in Bullock A N, et al., J. Biol. Chem. 2005, 280, 41675-82.
1.7 μM PIM1 was incubated 1 h at 28° C. in the presence of 125 μM ATP.
ATP concentration: 200 μM; ^33P-γ-ATP: 6 nM; Enzyme concentration: 1 nM Substrate concentration Aktide (Chemical Abstract Service Registry Number 324029-01-8): 25 μM iv. Robotized Dowex Assay
The test mix consisted of:
1) 3× Enzyme mix (done in Kinase Buffer 3×), 5 μL/well
2) 3× substrate and ATP mix (done in ddH2O), together with ^33P-γ-ATP, 5 μL/well 3) 3× test compounds (diluted into ddH2O—3% DMSO)—5 μL/well See below for compound dilution and assay scheme […]
An automated station (Biomek FX, Beckman) was used for serial dilutions, producing 1:3 dilutions in 100% DMSO, from line A1 to A10, for all the compounds in the column.
Data were analyzed by an internally customized version of the “Assay Explorer” SW package, which provided sigmoidal fitting of the ten-dilution curves for IC50 determination in secondary assay/hit confirmation routines.

The target in the next experiment is human PIM2 (Homo sapiens (Human), UniProt Q9P1W9). Put plainly: PIM2 kinase inhibition assay: Dowex technique. The format is biochemical. The note with it: ATP 4 μM, Aktide 5 μM, enzyme 1.5 nM; read-out: PIM-2 IC50. The procedure: Method for PIM2 Kinase Inhibition Assay: Dowex Technique
Chain of human PIM2 (Q9P1W9 whole entry): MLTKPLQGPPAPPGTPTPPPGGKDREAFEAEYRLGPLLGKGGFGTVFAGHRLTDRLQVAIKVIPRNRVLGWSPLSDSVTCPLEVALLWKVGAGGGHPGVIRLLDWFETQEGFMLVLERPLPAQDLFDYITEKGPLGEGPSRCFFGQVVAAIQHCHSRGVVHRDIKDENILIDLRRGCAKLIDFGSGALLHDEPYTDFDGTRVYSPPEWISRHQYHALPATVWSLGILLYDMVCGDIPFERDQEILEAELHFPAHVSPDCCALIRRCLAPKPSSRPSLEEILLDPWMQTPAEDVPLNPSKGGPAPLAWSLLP
The buffer for PIM2 assay was composed of HEPES 50 mM, at pH 7.5, with 1 mM MgCl2, 1 mM DTT, 3 μM Na3VO4, and 0.2 mg/mL BSA.
Full-length human PIM2 was expressed and purified as described in Fedorov O, et al., PNAS 2007 104, 51, 20523-28. ii. Assay Conditions (Final Concentrations)
Enzyme concentration=1.5 nM; ATP=4 μM; ^33P-γ-ATP=1 nM
Aktide substrate (Chemical Abstract Service Registry Number 324029-01-8)=5 μM iii. Robotized Dowex Assay
See above: same procedure as described for PIM1.

A further experiment deals with BaF3-PIM1 cells. The experiment is described as follows: In vitro cell proliferation assay (CellTiter-Glo), BaF3-PIM1. The format is cell-based. As to conditions: 72 hours. The procedure:
as §1, §2, §3, §4, §5, §6

pIC50: −log10 of the molar value. Where a name gives a salt, the structure may show the parent alone. Read-outs that look alike come from different tables or passages of the source.

Chain of human PIM1 (P11309 whole entry): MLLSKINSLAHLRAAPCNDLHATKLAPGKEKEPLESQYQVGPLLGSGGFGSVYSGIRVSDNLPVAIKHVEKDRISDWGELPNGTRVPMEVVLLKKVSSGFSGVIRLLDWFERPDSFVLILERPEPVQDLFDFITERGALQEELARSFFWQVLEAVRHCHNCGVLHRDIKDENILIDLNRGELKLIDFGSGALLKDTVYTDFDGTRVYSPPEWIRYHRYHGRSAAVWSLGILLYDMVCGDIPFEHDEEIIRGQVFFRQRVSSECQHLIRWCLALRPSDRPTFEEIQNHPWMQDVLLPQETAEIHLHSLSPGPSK

What is called pIC50 is −log10 of the IC50, conventionally taken in molar units. Regarding `NCC[C@H]1CNC(=O)c2cc(-c3cccc(OC(F)(F)F)c3)c(-c3ccsc3)n21` [Compound 85, (4S)-4-(2-aminoethyl)-6-(thiophen-3-yl)-7-[3-(trifluoromethoxy)phenyl]-3,4-dihydropyrrolo[1,2-a]pyrazin-1(2H)-one hydrochloride], the negative logarithm of the IC50 (pIC50) is 5.44 with MV-4-11 cells (Homo sapiens, MV4-11, 72 hours); 7.92 at human PIM1; 7.16 on human PIM2; 7.07 in the experiment with BaF3-PIM1 cells.
As to `Cc1cccc(-c2c(-c3cccc(OC(F)(F)F)c3)cc3n2[C@@H](CCN)CNC3=O)c1` [Compound 92, (4S)-4-(2-aminoethyl)-6-(3-methylphenyl)-7-[3-(trifluoromethoxy)phenyl]-3,4-dihydropyrrolo[1,2-a]pyrazin-1(2H)-one hydrochloride], the negative-log IC50 (pIC50) with MV-4-11 cells (Homo sapiens, MV4-11, 72 hours) is 5.66; on human PIM1, 8.30; at human PIM2, 7.82; in the experiment on BaF3-PIM1 cells it was 6.83.
Turning to `Cc1cc(-c2c(-c3cccc(OC(F)(F)F)c3)cc3n2[C@@H](CCN)CNC3=O)ccc1F` [Compound 122, (4S)-4-(2-aminoethyl)-6-(4-fluoro-3-methylphenyl)-7-[3-(trifluoromethoxy)phenyl]-3,4-dihydropyrrolo[1,2-a]pyrazin-1(2H)-one hydrochloride], the pIC50 with MV-4-11 cells (Homo sapiens, MV4-11, 72 hours) was 6.11; on human PIM1 it was 7.77; at human PIM2, 7.07; in the experiment with BaF3-PIM1 cells, 6.78.
As for `CN(C)Cc1ccc(-c2c(-c3cccc(OC(F)(F)F)c3)cc3n2C(CCCl)CNC3=O)cc1` (stereo not shown) [Compound 70, 4-(2-chloroethyl)-6-{4-[(dimethylamino)methyl]phenyl}-7-[3-(trifluoromethoxy)phenyl]-3,4-dihydropyrrolo[1,2-a]pyrazin-1(2H)-one trifluoroacetate], the negative logarithm of the IC50 (pIC50) with MV-4-11 cells (Homo sapiens, MV4-11, 72 hours) was 5.82; at human PIM1 it was 7.80; at human PIM2 it was 6.95; in the experiment with BaF3-PIM1 cells it was 6.38.
For the compound `CN1CCN(Cc2ccc(-c3c(-c4cccc(OC(F)(F)F)c4)cc4n3C(CCO)CNC4=O)cc2)CC1` (stereo not shown) [Compound 82, 4-(2-hydroxyethyl)-6-{4-[(4-methylpiperazin-1-yl)methyl]phenyl}-7-[3-(trifluoromethoxy)phenyl]-3,4-dihydropyrrolo[1,2-a]pyrazin-1(2H)-one trifluoroacetate], the pIC50 with MV-4-11 cells (Homo sapiens, MV4-11, 72 hours) is 5.22; on human PIM1, 9.00; at human PIM2, 7.46; in the experiment on BaF3-PIM1 cells, 6.31.
As for `COc1c(C)cc(-c2c(-c3cccc(OC(F)(F)F)c3)cc3n2[C@@H](CCN)CNC3=O)cc1C` [Compound 128, 4S)-4-(2-aminoethyl)-6-(4-methoxy-3,5-dimethyl phenyl)-7-[3-(trifluoromethoxy)phenyl]-3,4-dihydropyrrolo[1,2-a]pyrazin-1(2H)-one hydrochloride], the negative-log IC50 (pIC50) in the experiment on MV-4-11 cells (72 hours, read-out: MV4-11 IC50) was 6.33; on human PIM1, 8.10; at human PIM2 it was 7.49; in the experiment on BaF3-PIM1 cells, 6.76.
Turning to `Cc1cccc(-c2c(-c3ccnc(Cl)c3)cc3n2C(CCN)CNC3=O)c1` (stereo not shown) [Compound 45, 4-(2-aminoethyl)-7-(2-chloropyridin-4-yl)-6-(3-methylphenyl)-3,4-dihydropyrrolo[1,2-a]pyrazin-1(2H)-one hydrochloride], the negative logarithm of the IC50 (pIC50) in the experiment on MV-4-11 cells (Homo sapiens, MV4-11, 72 hours) was 5.50; on human PIM1 it was 7.39; at human PIM2, 6.99; in the experiment with BaF3-PIM1 cells it was 5.40.
With `NCC[C@H]1CNC(=O)c2cc(-c3cccc(OC(F)(F)F)c3)c(-c3ccc(C4(N)CC4)cc3)n21` [Compound 130, (4S)-6-[4-(1-aminocyclopropyl)phenyl]-4-(2-aminoethyl)-7-[3-(trifluoromethoxy)phenyl]-3,4-dihydropyrrolo[1,2-a]pyrazin-1(2H)-one hydrochloride], the pIC50 was 9.00 at human PIM1, 8.52 at human PIM2 and 6.82 in the experiment with BaF3-PIM1 cells.
Take `CN1CCN(Cc2ccc(-c3c(-c4cccc(OC(F)(F)F)c4)cc4n3[C@@H](CCCN)CNC4=O)cc2)CC1` [Compound 135, (4S)-4-(3-aminopropyl)-6-{4-[(4-methylpiperazin-1-yl)methyl]phenyl}-7-[3-(trifluoromethoxy)phenyl]-3,4-dihydropyrrolo[1,2-a]pyrazin-1(2H)-one dihydrochloride]: the pIC50 is 9.00 at human PIM1, 7.89 on human PIM2 and 5.19 with BaF3-PIM1 cells.
The like results for `NCCC[C@H]1CNC(=O)c2cc(-c3cccc(OC(F)(F)F)c3)c(-c3ccc(CO)cc3)n21` [Compound 105, (4S)-4-(3-aminopropyl)-6-[4-(hydroxymethyl)phenyl]-7-[3-(trifluoromethoxy)phenyl]-3,4-dihydropyrrolo[1,2-a]pyrazin-1(2H)-one hydrochloride] were, in that order, 7.80, 6.96 and 5.16.
For `CS(=O)(=O)c1ccc(-c2c(-c3cccc(OC(F)(F)F)c3)cc3n2[C@@H](CCNC(=N)N)CNC3=O)cc1` [Compound 149, 1-(2-{(4S)-6-[4-(methylsulfonyl)phenyl]-1-oxo-7-[3-(trifluoromethoxy)phenyl]-1,2,3,4-tetrahydropyrrolo[1,2-a]pyrazin-4-yl}ethyl)guanidine hydrochloride] the same measures were 8.10, 7.72 and 5.75.
In the case of `CNC(=O)c1ccc(-c2c(-c3cccc(OC(F)(F)F)c3)cc3n2C(CCO)CNC3=O)cc1` (stereo not shown) [Compound 80, 4-{4-(2-hydroxyethyl)-1-oxo-7-[3-(trifluoromethoxy)phenyl]-1,2,3,4-tetrahydropyrrolo[1,2-a]pyrazin-6-yl}-N-methylbenzamide], the negative logarithm of the IC50 (pIC50) is 7.70 at human PIM1, 7.12 at human PIM2 and 5.42 with BaF3-PIM1 cells.
The like results for `NCCC[C@H]1CNC(=O)c2cc(-c3cccc(OC(F)(F)F)c3)c(-c3ccc(O)cc3)n21` [Compound 104, (4S)-4-(3-aminopropyl)-6-(4-hydroxyphenyl)-7-[3-(trifluoromethoxy)phenyl]-3,4-dihydropyrrolo[1,2-a]pyrazin-1(2H)-one hydrochloride] were, in that order, 8.40, 7.32 and 5.15.
For `NCCC1CNC(=O)c2cc(-c3cccc(Cl)c3)c(-c3ccccc3)n21` (stereo not shown) [Compound 17, 4-(2-aminoethyl)-7-(3-chlorophenyl)-6-phenyl-3,4-dihydropyrrolo[1,2-a]pyrazin-1(2H)-one trifluoroacetate] the same measures were 7.47, 6.93 and 6.35.
For `CS(=O)(=O)c1ccc(-c2c(-c3cccc(OC(F)(F)F)c3)cc3n2[C@@H](CCCN)CNC3=O)cc1` [Compound 109, (4S)-4-(3-aminopropyl)-6-[4-(methylsulfonyl)phenyl]-7-[3-(trifluoromethoxy)phenyl]-3,4-dihydropyrrolo[1,2-a]pyrazin-1(2H)-one hydrochloride] the same measures were 7.96, 7.09 and 5.19.

The values above are taken from US9181258B2, “Substituted 3,4-dihydropyrrolo[1,2-a]pyrazin-1(2H)-ones as protein kinase inhibitors” (NERVIANO MEDICAL SCIENCES S.R.L., priority 2011, dated 2015).
